How the values were obtained:
[1] = target: T1, Type II NOS (RAW macrophage cell cytosol) (Mus musculus, UniProt P29477); assay: [3H]-Arginine to [3H]-Citrulline conversion, RAW cell cytosol (Type II NOS); format: biochemical, murine; conditions: for inhibition at 100 µM / IC50: LPS induced; for IC50: read-out: Inhibition of [3H]-Citrulline Formation IC50, RAW Cell cytosol
T1 construct: cytosolic preparations from RAW 264.7 cells; endogenous in cells; host or cells: RAW 264.7 cells, LPS-induced for 16 hours
Excerpt: (§1) The enzyme NO synthase produces EDRF/NO and citrulline from L-arginine (Bredt and Snyder, Proc. Nat'l. Acad. Sci. USA, 1989, 87: 682-5). The enzymatic generation of EDRF/NO is monitored by measuring the conversion of [^3 H]-L-arginine to [^3 H]-L-citrulline. An inhibitor of this specific enzymatic reaction lowers the conversion rate and, thus, the amount of [^3 H]-L-citrulline produced. Likewise, a compound acting as a substrate would compete with L-arginine and thereby lower the conversion rate.
(§2) The conversion of L-arginine to L-citrulline was assayed as reported previously (Bredt and Snyder, Proc. Nat'l Acad Sci USA, 1989, 87: 682-5) with minor modifications. Briefly, samples of partially purified NO synthase, 50-100 μg of protein or 20 μL of cytosol (alternatively cytosolic preparations from RAW 264.7 cells, a murine monocyte-macrophage cell line, induced for 16 hours with 10 μg/mL medium of Lipopolysaccharide (LPS), or partially purified (phosphocellulose column) type I isozyme from rat brain cerebellum, or partially purified isozyme III from bovine aortic endothelial cells (BAE cells)) were incubated for 20 minutes (3 minutes in the cases of purified enzyme preparations) at 25° C. in the presence of 10 μM L-[2,3-^3 H]arginine (55 Ci /mmol) (containing 34 nM (0.2 μCi)), 1 mM NADPH, and 2 Mm CaCl2 in a final volume of 100 μL. The reaction was stopped by adding 1 mL of stop buffer (2 mM EGTA, 2 mM EDTA 20 mM Hepes, pH 5.5). The total volume was then applied to a 1 mL Dowex AG 50 WX-8 column (Na^+ form, Bio-Rad) that had been pre-equilibrated with the stop buffer. L-[2,3-^3 H]Citrulline was eluted (2×) with 0.5 mL of stop buffer and radioactivity was determined by liquid scintillation counting.
(§3) The following Tables present data on the inhibition of [^3 H]-citrulline formation from [^3 H]-L-arginine by the compounds of the invention in various preparations representative of the isoforms of NOS, Types I, II, and III NOS as represented by rat brain cytosol, […] macrophage cell cytosol, and BAE homogenate preparation respectively.

[2] = target: T2, Type I NOS (rat brain cytosol) (Rattus norvegicus, UniProt P29476); assay: [3H]-Arginine to [3H]-Citrulline conversion, rat brain cytosol (Type I NOS); format: biochemical; conditions: for IC50: read-out: Inhibition of [3H]-Citrulline Formation IC50, Rat Brain Cytosol
T2 construct: type I isozyme from rat brain cerebellum; from tissue; host or cells: rat brain (cytosol; cerebellum, phosphocellulose-purified)
Excerpt: as §1, §2, §3

[3] = target: T3, Type III NOS (BAE homogenate preparation) (Bos taurus, UniProt P29473); assay: [3H]-Arginine to [3H]-Citrulline conversion, BAE homogenate preparation (Type III NOS); format: biochemical, bovine; conditions: for IC50: read-out: Inhibition of [3H]-Citrulline Formation IC50, BAE Preparation
T3 construct: partially purified isozyme III from bovine aortic endothelial cells (BAE cells); endogenous in cells; host or cells: bovine aortic endothelial (BAE) cells
Excerpt: as §1, §2, §3

[4] = read-out: Percent Inhibition of [3H]-Citrulline Formation, RAW Cell Cytosol
[5] = read-out: Percent Inhibition of [3H]-Citrulline Formation, Rat Brain Cytosol
[6] = read-out: Percent Inhibition of [3H]-Citrulline Formation, BAE Preparation

Compound | inhibition at 100 µM [1, 4] [%] | IC50 [1] [µM] | inhibition at 100 µM [2, 5] [%] | IC50 [2] [µM] | IC50 [3] [µM] | inhibition at 100 µM [3, 6] [%] | inhibition at 10 µM ([1]; tested at 10 μM, read-out: Percent Inhibition of [3H]-Citrulline Formation, RAW Cell Cytosol) [%] | inhibition at 30 µM ([2]; tested at 30 μM, read-out: Percent Inhibition of [3H]-Citrulline Formation, Rat Brain Cytosol) [%] | inhibition at 30 µM ([3]; tested at 30 μM, read-out: Percent Inhibition of [3H]-Citrulline Formation, BAE Preparation) [%]
CC(C)(C)OC(=O)N1[C@@H](/C=C(/CNC(=N)N)Cc2ccccc2)COC1(C)C [Example 24, 3-(1,1-Dimethylethyl)-(S)-4-(3,guanidino-2-benzyl-propen-1,E,yl)-2,2-dimethyl--oxazolidinecarboxylate] | 20 | > 100 | 35 | > 100 | – | – | – | – | –
C/C(=C\[C@H]1COC(C)(C)N1C(=O)OC(C)(C)C)CNC(=N)N[N+](=O)[O-] [Example 14, 3-(1,1-Dimethylethyl)-(S)-4-(3-nitroguanidino-2-methyl-propen-1,E-yl)-2,2-dimethyl-3-oxazolidinecarboxylate] | 0 | > 100 | 0 | > 100 | > 100 | – | – | – | –
CC(C)(C)OC(=O)N1[C@@H](/C=C/CNC(=N)N[N+](=O)[O-])COC1(C)C [Example 1, 3-(1,1 -Dimethylethyl)-(S)-4-(3-N^G -nitroguanidinopropen-1, E-yl)-2,2-dimethyl-3-oxazolidinecarboxvlate] | 0 | > 100 | 6 | > 100 | > 100 | – | – | – | –
C/C(=C\[C@H](N)CO)CNC(=N)N [Example 21, N^G -Guanidinyl-4(S)-Amino-2-methyl-pent-2,E-ene-5-ol] | 94 | 30 | 86 | 20 | 100 | 50 | – | – | –
CNC(=N)NC/C(C)=C/[C@H](N)CO [Example 27, N^G -Methylguanidinyl-4(S)-Amino-2-methyl-pent-2,E-ene-5-ol] | 97 | 20 | 86 | 20 | > 100 | 46 | – | – | –
N=C(NC/C=C/[C@H](N)CO)N[N+](=O)[O-] [Example 2, N^G -Nitroguanidinyl-4(S)-amino-pent-2,E-ene-5-ol] | 14 | > 100 | 80 | 40 | 80 | – | – | – | –
CC(C)(C)OC(=O)N1[C@@H](/C=C/CNC(=N)NO)COC1(C)C [Example 7, 3-(1,1-Dimethylethyl)-(S)-4-(3-N^G -hydroxyguanidinopropen-1,E-yl)-2.2-dimethyl-3-oxazolidinecarboxylate] | 17 | > 100 | – | – | – | – | – | – | –
CNC(=N)NC/C=C/[C@@H](N)CO [Example 19, N-^G -Methylguanidinyl-4(R)-Amino-pent-2,E-ene,5-ol] | 27 | > 100 | 77 | 35 | > 100 | 0 | – | – | –
CNC(=N)NC/C=C/[C@H]1COC(C)(C)N1C(=O)OC(C)(C)C [Example 9, 3-(1,1-Dimethylethyl)-(S)-4-(3-N^G -methylguanidinoorooen-1,E-yl)-2.2-dimethyl-3-oxazolidinecarboxylate] | 47 | 100 | 51 | 80 | – | – | – | – | –

Results, then the compound that gave them:

inhibition at 100 µM [1, 4] [%] | IC50 [1] [µM] | inhibition at 100 µM [2, 5] [%] | IC50 [2] [µM] | IC50 [3] [µM] | inhibition at 100 µM [3, 6] [%] | inhibition at 10 µM ([1]; tested at 10 μM, read-out: Percent Inhibition of [3H]-Citrulline Formation, RAW Cell Cytosol) [%] | inhibition at 30 µM ([2]; tested at 30 μM, read-out: Percent Inhibition of [3H]-Citrulline Formation, Rat Brain Cytosol) [%] | inhibition at 30 µM ([3]; tested at 30 μM, read-out: Percent Inhibition of [3H]-Citrulline Formation, BAE Preparation) [%] | Compound
6 | > 100 | 18 | > 100 | – | – | – | – | – | CNC(=N)NC/C=C/[C@@H](CO)NC(=O)OC(C)(C)C [Example 17, N^4, Boc-N^G -Methylguanidinyl-4(S)-Amino-pent-2,E-ene-5-ol]
41 | > 100 | 20 | > 100 | – | – | – | – | – | CCNC(=N)NC/C=C/[C@H]1COC(C)(C)N1C(=O)OC(C)(C)C [Example 11, 3-(1,1-Dimethylethyl)-(S)-4-(3-N^G -ethylguanidinopropen-1,E-yl)-2,2-dimethyl-3-oxazolidinecarboxylate]
9 | > 100 | 17 | > 100 | – | – | – | – | – | CNC(=N)NC/C=C/[C@@H]1COC(C)(C)N1C(=O)OC(C)(C)C [Example 18, 3-(1,1-Dimethylethyl)-(R)-4-(3-N^G -methylguanidinopropen-1,E-yl)-2,2-dimethyl-3-oxazolidinecarboxylate]
97 | < 100 | 70 | 40 | 100 | 50 | – | – | – | CC(C)(C)OC(=O)N1[C@H](/C=C/CNC(=N)N)COC1(C)C [Example 22, 3-(1,1-Dimethylethyl)-(R)-4-(3-guanidinopropen-1.E-yl)-2,2-dimethyl-3-oxazolidinecarboxylate]
45 | 100 | 27 | > 100 | – | – | – | – | – | C/C(=C\[C@H]1COC(C)(C)N1C(=O)OC(C)(C)C)CNC(=N)N [Example 20, 3-(1,1-Dimethylethyl)-(S)-4-(3-guanidino-2-methyl-propen-1,E-yl)-2,2-dimethyl-3-oxazolidinecarboxylate]
68 | 40 | 35 | > 100 | > 100 | – | – | – | – | CC(C)(C)OC(=O)N1[C@@H](/C=C/CNC(=N)N)COC1(C)C [Example 3, 3-(1,1-Dimethylethyl)-(S)-4-(3-guanidinopropen-1,E-yl)-2,2-dimethyl-3-oxazolidinecarboxylate]
43 | > 100 | 74 | 30 | > 100 | 40 | – | – | – | CNC(=N)NC/C=C/[C@H](N)CO [Example 10, N^G -Methylguanidinyl-4(S)-Amino-pent-2 ,E-ene-5-ol]
50 | 100 | – | – | > 100 | 22 | – | – | – | N=C(N)NC/C=C/[C@H](N)CO [Example 4, 1-Guanidirlyl-4(S)-amino-pent-2,E-ene-5-ol]
– | 22 | – | > 30 | > 30 | – | 46 | 0 | 0 | N=C(NN)NC/C=C/[C@H](N)CO [Example 6, N^G -Aminoguanidinyl-4(S)-amino-pent-2,E-ene-5-ol]
66 | 40 | 90 | 10 | 100 | 50 | – | – | – | C/C(=C\[C@H](N)CO)CNC(=N)N[N+](=O)[O-] [Example 15, N^G -Nitroguanidinyl-4(S)-Amino-2-methyl-pent-2,E-ene-5-ol]
20 | > 100 | 80 | 40 | > 100 | 14 | – | – | – | N=C(N)NC/C(=C/[C@H](N)CO)Cc1ccccc1 [Example 25, N^G -Guanidinyl-4(S)-Amino-2-benzyl-pent-2,E-ene-5-ol]
8 | > 100 | 70 | 30 | > 100 | 5 | – | – | – | CCNC(=N)NC/C=C/[C@H](N)CO [Example 12, N^G Ethylguanidinyl-4(S)-Amino-pent-2,E-ene-5-ol]
13 | > 100 | 23 | > 100 | – | – | – | – | – | N=C(NO)NC/C=C/[C@H](N)CO [Example 8, N^G -Hydroxyguanidinyl-4(S)-amino-pent-2,E-ene-5-ol]
